# Experimental data taken from PMC12259270, “Sensory neuron–expressed FGF13 controls nociceptive signaling in diabetic neuropathy models” (The Journal of Clinical Investigation, 2025).
# “And” between values parts separate entries of the source, which are not always exact repeats. Equal entries are not always repeated. Residues, ends and D or L forms follow the SMILES beside them. *: point of attachment. NHPh = c1ccc(N*)cc1
# Biological target: T1, human Nav1.7 (Homo sapiens, UniProt Q15858)
# T1 construct: expressed in transfected cells; host or cells: HEK293 stably expressing human Nav1.7
# Assay: Whole-cell patch-clamp, HEK293 cells stably expressing human Nav1.7 with GFP or FGF13-GFP
# Assay type: cell-based
# Settings: for Activation / LTI, 2nd Pulse / LTI, 3rd Pulse / LTI, 4th Pulse / Peak Density / Steady-State inactivation / Tau (τ): HEK293 Nav1.7; for Figure 4G, Mean per step (normalized) / Figure 4H, Mean per step (step 1 = 100): N 10
# Description: Whole-cell patch clamp electrophysiology
# HEK293-Nav1.7 cells, HEK293 stably expressing human Nav1.6 (HEK-Nav1.6), HEK293 stably expressing human Nav1.5 (HEK-Nav1.5), human hIPSC-derived sensory neurons (RealDRGTM from Anatomic Incorporated 1020F1-1M) and donor-derived DRG neurons were plated at low density on glass coverslips and processed for whole-cell patch clamp electrophysiology in voltage-clamp and/or current clamp mode. Whole-cell patch electrophysiological experiments were conducted following previously published studies (26). Current densities were obtained by dividing INa amplitude by membrane capacitance. Current –voltage relationships were generated by plotting current density as a function of the […]. Conductance (G Na) was calculated by the […]
# where INa is the current amplitude at voltage Vm, and Erev is the Na+ reversal potential.
# Activation curves were derived by plotting normalized GNa as a function of test potential and fitted using […]
# Where GNa,Max is the maximum conductance, Va is the membrane potential of half-maximal activation, Em is the membrane voltage and k is the slope factor. For steady -state inactivation, normalized current amplitude (INa/INa,Max) at the test potential was plotted as a function of prepulse potential (Vm) and fitted using the […]
# Where Vh is the potential of half-maximal inactivation, E m is the membrane voltage, and k is the slope factor.
# Transient INa inactivation decay was estimated with the standard exponential equation. Inactivation time constant (tau, τ) was fitted with the following equation: […]
# where I(t) is the amplitude of the current at time t and Iss is the steady-state current during a single voltage-step.
# The goodness of fitting was determined by correlation coefficient (R), and the cutoff of R was set at 0.85. To observe effects on long-term inactivation (LTI), a four-step protocol was employed during which cells were subjected to four 0 mV, 20 ms depolarization pulses separated by −90 mV, 40 ms recovery intervals. To control for various cell sizes, the current densities were calculated by dividing INa peak current amplitude/membrane capacitance (Cm). To represent the fraction of channels entering into LTI, the peak INa observed during depolarization cycles 2-4 was normalized to the peak INa observed during depolarization cycle 1 (INa/INa,Cycle 1) and plotted as a function of the depolarization cycle.
# The cumulative (frequency-dependent) use-dependency was determined by applying 20 pulses with a depolarization to −10 mV (50 ms duration) and 50 ms recovery intervals with a train of 20 pulses at 10 Hz from a holding potential at -70 mV. The current pulses were normalized to the first reco rded pulse and the currents at the 2nd to 20th pulses were compared. The same train was used to record use-dependency at various frequencies […]
# The rate of recovery from inactivation was recorded at -80 mV with a standard repriming voltage protocol.
# The cells were prepulsed to -20 mV for 20 ms to inactivate all currents, then driven back to the recovery potential (Vrec) for increasing recovery durations before the test pulse to 0 mV. The maximum pulse rate was 0.5 Hz. The […]
# follows previous publications (16). The time constants were estimated from single exponential decay to time courses measured at recovery potentials ranging from -140 to -60 mV with the protocol as mentioned above.
# Electrophysiological Recordings
# HEK293 cells: Electrophysiological recordings in HEK293 stably expressing Nav1.7 (HEK-Nav1.7), Nav1.5 (HEK-Nav1.5) or Nav1.6 (HEK-Nav1.6) were performed at room temperature using a MultiClamp 700B or an Axopatch 200B amplifier (Molecular Devices) after incubating coverslips for 60 minutes either with 0.1% DMSO or 50 μM PW164 or ZL192 in the extracellular solution. The composition of recording solutions consisted of the […]
# following salts: extracellular (mM): 140 NaCl, 3 KCl, 1 MgCl2, 1 CaCl2, 10 HEPES, 10 glucose, pH 7.3; […]
# intracellular (mM): 130 CH3O3 SCs, 1 EGTA, 10 NaCl, 10 HEPES, pH 7.3. […]
# T1 sequence (Q92913 1-192 partner limits assumed): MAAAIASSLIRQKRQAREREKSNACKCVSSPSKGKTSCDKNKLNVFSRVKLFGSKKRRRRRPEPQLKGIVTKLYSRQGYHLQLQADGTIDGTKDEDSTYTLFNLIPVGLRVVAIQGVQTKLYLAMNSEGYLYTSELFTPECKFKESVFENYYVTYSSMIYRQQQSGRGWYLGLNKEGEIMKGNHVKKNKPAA
# T1 sequence (Q15858 1-1977 isoform Q15858-3): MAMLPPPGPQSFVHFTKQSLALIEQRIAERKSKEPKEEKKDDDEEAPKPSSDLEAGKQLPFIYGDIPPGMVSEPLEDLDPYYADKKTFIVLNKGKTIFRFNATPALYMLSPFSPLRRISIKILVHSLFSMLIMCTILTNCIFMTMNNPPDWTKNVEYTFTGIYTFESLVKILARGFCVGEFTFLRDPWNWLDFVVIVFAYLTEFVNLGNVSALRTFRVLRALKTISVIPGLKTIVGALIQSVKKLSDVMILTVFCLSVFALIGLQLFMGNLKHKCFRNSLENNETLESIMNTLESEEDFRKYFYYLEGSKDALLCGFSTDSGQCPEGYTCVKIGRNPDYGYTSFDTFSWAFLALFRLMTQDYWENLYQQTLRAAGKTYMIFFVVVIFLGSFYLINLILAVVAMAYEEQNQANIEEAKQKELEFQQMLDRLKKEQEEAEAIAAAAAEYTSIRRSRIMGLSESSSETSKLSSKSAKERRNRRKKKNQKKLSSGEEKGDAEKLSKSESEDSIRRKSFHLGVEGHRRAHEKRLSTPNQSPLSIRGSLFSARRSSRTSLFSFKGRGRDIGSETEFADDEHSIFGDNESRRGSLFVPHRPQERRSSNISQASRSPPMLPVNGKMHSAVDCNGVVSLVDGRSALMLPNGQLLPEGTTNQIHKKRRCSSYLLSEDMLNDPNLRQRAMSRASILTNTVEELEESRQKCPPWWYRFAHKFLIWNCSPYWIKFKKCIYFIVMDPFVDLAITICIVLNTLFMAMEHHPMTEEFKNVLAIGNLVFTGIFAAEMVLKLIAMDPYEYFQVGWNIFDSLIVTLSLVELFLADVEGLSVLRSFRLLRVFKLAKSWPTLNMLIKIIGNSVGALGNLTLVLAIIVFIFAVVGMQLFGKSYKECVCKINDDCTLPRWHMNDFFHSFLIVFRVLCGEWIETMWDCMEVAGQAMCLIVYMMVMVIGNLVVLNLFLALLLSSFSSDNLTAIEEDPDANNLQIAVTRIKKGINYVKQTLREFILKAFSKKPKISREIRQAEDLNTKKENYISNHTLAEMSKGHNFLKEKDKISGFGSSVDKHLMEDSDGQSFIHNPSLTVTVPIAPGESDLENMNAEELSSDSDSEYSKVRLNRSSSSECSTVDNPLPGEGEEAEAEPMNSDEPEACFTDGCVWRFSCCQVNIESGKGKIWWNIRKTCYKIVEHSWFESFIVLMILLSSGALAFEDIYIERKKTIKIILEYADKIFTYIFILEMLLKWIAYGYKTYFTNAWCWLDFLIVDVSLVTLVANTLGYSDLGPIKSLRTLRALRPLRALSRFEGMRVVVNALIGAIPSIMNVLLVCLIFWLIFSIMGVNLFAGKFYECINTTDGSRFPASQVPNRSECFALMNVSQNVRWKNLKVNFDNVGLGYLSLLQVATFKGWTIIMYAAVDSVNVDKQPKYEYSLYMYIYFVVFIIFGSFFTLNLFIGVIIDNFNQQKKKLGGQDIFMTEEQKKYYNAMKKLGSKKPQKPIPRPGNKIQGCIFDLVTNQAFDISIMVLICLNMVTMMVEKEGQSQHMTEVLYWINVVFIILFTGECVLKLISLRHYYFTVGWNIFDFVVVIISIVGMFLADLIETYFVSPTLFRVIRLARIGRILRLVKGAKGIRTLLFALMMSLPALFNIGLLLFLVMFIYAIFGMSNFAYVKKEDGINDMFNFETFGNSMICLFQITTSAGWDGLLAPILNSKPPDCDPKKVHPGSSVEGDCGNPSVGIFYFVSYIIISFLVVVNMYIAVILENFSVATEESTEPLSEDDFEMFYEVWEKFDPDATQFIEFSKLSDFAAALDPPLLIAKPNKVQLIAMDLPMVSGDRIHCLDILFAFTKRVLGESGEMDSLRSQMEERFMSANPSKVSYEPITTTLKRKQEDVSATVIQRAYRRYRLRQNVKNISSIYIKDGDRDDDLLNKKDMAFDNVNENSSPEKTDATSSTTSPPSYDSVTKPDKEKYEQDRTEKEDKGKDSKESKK
structure (smiles),measurement,setting,value
CC(=O)N[C@@H](Cc1ccccc1)C(=O)N[C@@H](CC(C)C)C(=O)N1CCC[C@H]1C(=O)N[C@@H](CCCCN)C(=O)Nc1ccccc1 [ZL192] (Ac-FLPK-NHPh),Activation,FGF13-GFP + ZL192 50 μM,−26.0 ± 0.8 mV
same,"LTI, 2nd Pulse",FGF13-GFP + ZL192 50 μM,−69.72 ± 5.21 % maximal Na+ current
same,"LTI, 3rd Pulse",FGF13-GFP + ZL192 50 μM,−60.33 ± 5.60 % maximal Na+ current
same,"LTI, 4th Pulse",FGF13-GFP + ZL192 50 μM,−59.34 ± 4.68 % maximal Na+ current
same,Peak Density,FGF13-GFP + ZL192 50 μM,−139.7 ± 12.3 pA/pF
same,Steady-State inactivation,FGF13-GFP + ZL192 50 μM,−66.7 ± 2.6 mV
same,Tau (τ),FGF13-GFP + ZL192 50 μM,1.2 ± 0.06 ms
same,Activation,GFP + ZL192 50 μM,−25.7 ± 0.8 mV
same,"LTI, 2nd Pulse",GFP + ZL192 50 μM,−67.94 ± 3.77 % maximal Na+ current
same,"LTI, 3rd Pulse",GFP + ZL192 50 μM,−62.35 ± 57.35 % maximal Na+ current
same,"LTI, 4th Pulse",GFP + ZL192 50 μM,−60.93 ± 3.90 % maximal Na+ current
same,Peak Density,GFP + ZL192 50 μM,−73.5 ± 8.1 pA/pF
same,Steady-State inactivation,GFP + ZL192 50 μM,−82.8 ± 1.1 mV
same,Tau (τ),GFP + ZL192 50 μM,1.3 ± 0.1 ms
same,EC50,"HEK-Nav1.7 coexpressing FGF13, Fig 4D, read-out: EC50, potentiation of INa",8.5 ± 0.9 µM
same,"Current density pA/pF (Figure 4D), individual cells",Nav1.7 + FGF13-GFP,-168.188 pA/pF and -158.115 pA/pF and -119.568 pA/pF and -127.538 pA/pF and -145.958 pA/pF and -170.525 pA/pF and -75.8621 pA/pF and -128.86 pA/pF and -208.183 pA/pF and -94.6899 pA/pF
same,"pA/pF Dose response (Figure 4D), individual cells","Nav1.7 + FGF13-GFP, Log (conc(M) -4)",-162.222 pA/pF and -131.216 pA/pF and -115.311 pA/pF and -179.051 pA/pF and -125.271 pA/pF and -135.274 pA/pF
same,"pA/pF Dose response (Figure 4D), individual cells","Nav1.7 + FGF13-GFP, Log (conc(M) -4.12)",-133.535 pA/pF and -142.569 pA/pF and -148.889 pA/pF
same,"pA/pF Dose response (Figure 4D), individual cells","Nav1.7 + FGF13-GFP, Log (conc(M) -4.22)",-94.6899 pA/pF and -168.188 pA/pF and -158.115 pA/pF and -119.568 pA/pF and -127.538 pA/pF and -145.958 pA/pF and -170.525 pA/pF and -75.8621 pA/pF and -128.86 pA/pF and -208.183 pA/pF
same,"pA/pF Dose response (Figure 4D), individual cells","Nav1.7 + FGF13-GFP, Log (conc(M) -4.6)",-142.47 pA/pF and -131.114 pA/pF and -147.185 pA/pF and -132.461 pA/pF and -139.907 pA/pF and -150.76 pA/pF and -140.066 pA/pF
same,"pA/pF Dose response (Figure 4D), individual cells","Nav1.7 + FGF13-GFP, Log (conc(M) -4.82)",-154.895 pA/pF and -103.016 pA/pF and -135.94 pA/pF and -128.008 pA/pF and -135.582 pA/pF and -110.637 pA/pF and -137.656 pA/pF (2×)
same,"pA/pF Dose response (Figure 4D), individual cells","Nav1.7 + FGF13-GFP, Log (conc(M) -5)",-99.4552 pA/pF and -132.222 pA/pF and -121.216 pA/pF and -111.311 pA/pF and -169.051 pA/pF and -139.271 pA/pF and -105.274 pA/pF
same,"pA/pF Dose response (Figure 4D), individual cells","Nav1.7 + FGF13-GFP, Log (conc(M) -5.5)",-112.13 pA/pF and -130.035 pA/pF and -105.009 pA/pF and -123.737 pA/pF and -114.192 pA/pF and -90.2752 pA/pF and -117.316 pA/pF
same,"pA/pF Dose response (Figure 4D), individual cells","Nav1.7 + FGF13-GFP, Log (conc(M) -6)",-149.506 pA/pF and -142.879 pA/pF and -66.945 pA/pF and -161.516 pA/pF and -59.6444 pA/pF and -67.5751 pA/pF and -70.501 pA/pF and -91.4611 pA/pF and -141.024 pA/pF and -68.796 pA/pF and -57.939 pA/pF
same,"Figure 4G, Mean per step (normalized)","Nav1.7 + FGF13-GFP, Steps 1",1
same,"Figure 4H, Mean per step (step 1 = 100)","Nav1.7 + FGF13-GFP, Steps 1",100
same,"Figure 4H, Mean per step (step 1 = 100)","Nav1.7 + FGF13-GFP, Steps 2",69.7172
same,"Figure 4G, Mean per step (normalized)","Nav1.7 + FGF13-GFP, Steps 3",0.9185
same,"Figure 4H, Mean per step (step 1 = 100)","Nav1.7 + FGF13-GFP, Steps 3",60.3376
same,"Figure 4H, Mean per step (step 1 = 100)","Nav1.7 + FGF13-GFP, Steps 4",59.3427
same,"Figure 4G, Mean per step (normalized)","Nav1.7 + FGF13-GFP, Steps 5",0.9162
same,"Figure 4G, Mean per step (normalized)","Nav1.7 + FGF13-GFP, Steps 10",0.8818
same,"Figure 4G, Mean per step (normalized)","Nav1.7 + FGF13-GFP, Steps 15",0.8857
